Patent publication US9708287B2, “Chiral compounds, compositions, products and methods employing same” (Cayman Chemical Company Incorporated, priority 2012, dated 2017)

System: human skin
Experiment: topical administration to a human in need of beautifying
Format: in vivo
Details: twice daily treatments, after several weeks
Description: The chiral, non-racemic analog, (+) deoxyArbutin ((+)-dA), prepared as described in Example I is administered topically to a human in need of beautifying.

Oc1ccc(OC2CCCCO2)cc1 (racemic) [(+) deoxyArbutin, 4-(tetrahydro-2H-pyran-2-yloxy)phenol]
health and vitality of the treated areas of the skin: increased health and vitality
pigmentation of the treated areas of the skin: decreased pigmentation
